Results: patent US9738634B2, “Heterocyclic amide compound and herbicide” (SYNGENTA PARTICIPATIONS AG, priority 2013, dated 2017)

Assays:
Assay type in all cases: in vivo
crabgrass [1] = assay: Test Example 4: weedkilling efficacy by foliar treatment; D: crabgrass; details: treatment dosage 315 g/ha
Procedure, shortened: (§1)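 Seeds are spot-sown into sterilized diluvial soil and covered with about 1.5 cm of soil. After 14 days' greenhouse growth at 25 to 30° C, plants are sprayed on stems and leaves with diluted emulsion at the stated g/ha rate, then scored at 3 weeks.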

oval-leafed pondweed [2] = assay: Test Example 2: weedkilling efficacy, growth period weed treatment in the submerged state; C: oval-leafed pondweed; details: treatment dosage 252 g/ha
Procedure, shortened: (§2)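 Barnyard grass, bulrush and oval-leafed pondweed sown in alluvial soil under 4 cm flooding, greenhouse 25 to 30° C. At 1-2 leaf stage, water-diluted emulsion applied to the water surface at stated g/ha dosages; effects scored 3 weeks later.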

Indian mallow [3] = assay: Test Example 3: weedkilling efficacy through soil treatment; K: Indian mallow; details: treatment dosage 315 g/ha
Procedure, shortened: (§3)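 Crop and weed responses were judged three weeks after a uniform surface spray of the water-diluted emulsion at the given g/ha rate. Seeds sat beneath about 1.5 cm of sterilized diluvial soil, and boxes stood in a greenhouse at 25 to 30° C.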

redroot pigweed [4] = assay: Test Example 4: weedkilling efficacy by foliar treatment; L: redroot pigweed; details: treatment dosage 315 g/ha
Procedure, shortened: as §1

catchweed [5] = assay: Test Example 4: weedkilling efficacy by foliar treatment; O: catchweed; details: treatment dosage 315 g/ha
Procedure, shortened: as §1

wheat [6] = assay: Test Example 3: soil treatment, effect on crop; e: wheat; details: treatment dosage 315 g/ha
Procedure, shortened: as §3

birds-eye speedwell = assay: Test Example 4: weedkilling efficacy by foliar treatment; p: birds-eye speedwell; details: treatment dosage 315 g/ha
Procedure, shortened: as §1

directly sown rice [7] = assay: Test Example 4: foliar treatment, effect on crop; b: directly sown rice; details: treatment dosage 315 g/ha
Procedure, shortened: as §1

wild oat [8] = assay: Test Example 4: weedkilling efficacy by foliar treatment; G: wild oat; details: treatment dosage 315 g/ha
Procedure, shortened: as §1

green foxtail [9] = assay: Test Example 4: weedkilling efficacy by foliar treatment; E: green foxtail; details: treatment dosage 315 g/ha
Procedure, shortened: as §1

Italian ryegrass [10] = assay: Test Example 4: weedkilling efficacy by foliar treatment; I: Italian ryegrass; details: treatment dosage 315 g/ha
Procedure, shortened: as §1

fig-leafed goosefoot [11] = assay: Test Example 3: weedkilling efficacy through soil treatment; M: fig-leafed goosefoot; details: treatment dosage 315 g/ha
Procedure, shortened: as §3

soybean [12] = assay: Test Example 4: foliar treatment, effect on crop; d: soybean; details: treatment dosage 315 g/ha
Procedure, shortened: as §1

chickweed [13] = assay: Test Example 4: weedkilling efficacy by foliar treatment; N: chickweed; details: treatment dosage 315 g/ha
Procedure, shortened: as §1

barnyard grass [14] = assay: Test Example 1: weedkilling efficacy, preemergent weed treatment in the submerged state; A: barnyard grass; details: treatment dosage 252 g/ha
Procedure, shortened: (§4)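 Visual scores against set criteria were taken 3 weeks after treatment. Compounds, as diluted emulsions at specified g/ha, went onto the water surface of 4 cm-flooded alluvial soil pots on the day weeds were sown and 2.5-leaf rice was transplanted; greenhouse held 25–30 °C.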

wheat [15] = assay: Test Example 4: foliar treatment, effect on crop; e: wheat; details: treatment dosage 315 g/ha
Procedure, shortened: as §1

black-grass [16] = assay: Test Example 3: weedkilling efficacy through soil treatment; H: black-grass; details: treatment dosage 315 g/ha
Procedure, shortened: as §3

corn [17] = assay: Test Example 3: soil treatment, effect on crop; c: corn; details: treatment dosage 315 g/ha
Procedure, shortened: as §3

transplanted rice = assay: Test Example 1: preemergent weed treatment in the submerged state, effect on crop; a: transplanted rice; details: treatment dosage 252 g/ha
Procedure, shortened: as §4

beet [18] = assay: Test Example 3: soil treatment, effect on crop; f: beet; details: treatment dosage 315 g/ha
Procedure, shortened: as §3

Indian mallow [19] = assay: Test Example 4: weedkilling efficacy by foliar treatment; K: Indian mallow; details: treatment dosage 315 g/ha
Procedure, shortened: as §1

green foxtail [20] = assay: Test Example 3: weedkilling efficacy through soil treatment; E: green foxtail; details: treatment dosage 315 g/ha
Procedure, shortened: as §3

redroot pigweed [21] = assay: Test Example 3: weedkilling efficacy through soil treatment; L: redroot pigweed; details: treatment dosage 315 g/ha
Procedure, shortened: as §3

crabgrass [22] = assay: Test Example 3: weedkilling efficacy through soil treatment; D: crabgrass; details: treatment dosage 315 g/ha
Procedure, shortened: as §3

directly sown rice [23] = assay: Test Example 3: soil treatment, effect on crop; b: directly sown rice; details: treatment dosage 315 g/ha
Procedure, shortened: as §3

soybean [24] = assay: Test Example 3: soil treatment, effect on crop; d: soybean; details: treatment dosage 315 g/ha
Procedure, shortened: as §3

oval-leafed pondweed [25] = assay: Test Example 1: weedkilling efficacy, preemergent weed treatment in the submerged state; C: oval-leafed pondweed; details: treatment dosage 252 g/ha
Procedure, shortened: as §4

black-grass [26] = assay: Test Example 4: weedkilling efficacy by foliar treatment; H: black-grass; details: treatment dosage 315 g/ha
Procedure, shortened: as §1

bulrush [27] = assay: Test Example 1: weedkilling efficacy, preemergent weed treatment in the submerged state; B: bulrush; details: treatment dosage 252 g/ha
Procedure, shortened: as §4

fig-leafed goosefoot [28] = assay: Test Example 4: weedkilling efficacy by foliar treatment; M: fig-leafed goosefoot; details: treatment dosage 315 g/ha
Procedure, shortened: as §1

bulrush [29] = assay: Test Example 2: weedkilling efficacy, growth period weed treatment in the submerged state; B: bulrush; details: treatment dosage 252 g/ha
Procedure, shortened: as §2

wild oat [30] = assay: Test Example 3: weedkilling efficacy through soil treatment; G: wild oat; details: treatment dosage 315 g/ha
Procedure, shortened: as §3

barnyard grass [31] = assay: Test Example 2: weedkilling efficacy, growth period weed treatment in the submerged state; A: barnyard grass; details: treatment dosage 252 g/ha
Procedure, shortened: as §2

Italian ryegrass [32] = assay: Test Example 3: weedkilling efficacy through soil treatment; I: Italian ryegrass; details: treatment dosage 315 g/ha
Procedure, shortened: as §3

chickweed [33] = assay: Test Example 3: weedkilling efficacy through soil treatment; N: chickweed; details: treatment dosage 315 g/ha
Procedure, shortened: as §3

corn [34] = assay: Test Example 4: foliar treatment, effect on crop; c: corn; details: treatment dosage 315 g/ha
Procedure, shortened: as §1

catchweed [35] = assay: Test Example 3: weedkilling efficacy through soil treatment; O: catchweed; details: treatment dosage 315 g/ha
Procedure, shortened: as §3

beet [36] = assay: Test Example 4: foliar treatment, effect on crop; f: beet; details: treatment dosage 315 g/ha
Procedure, shortened: as §1

Compound: CC1=C(c2ccccc2)C(=O)N(C(C)(C)C(=O)Nc2cc(C(F)(F)F)cc(Cl)n2)CO1 [B-2-37]
- D (crabgrass) weedkilling efficacy grade (crabgrass [1]): 5 (weed kill ratio 90% or more, (practically complete withering))
- C (oval-leafed pondweed) weedkilling efficacy grade (oval-leafed pondweed [2]): 5 (weed kill ratio 90% or more, (practically complete withering))
- K (Indian mallow) weedkilling efficacy grade (Indian mallow [3]): 4 (weed kill ratio 70% or more, less than 90%)
- L (redroot pigweed) weedkilling efficacy grade (redroot pigweed [4]): 4 (weed kill ratio 70% or more, less than 90%)
- O (catchweed) weedkilling efficacy grade (catchweed [5]): 3 (weed kill ratio 40% or more, less than 70%)
- e (wheat) effect on crop grade (wheat [6]): 0 (weed kill ratio 5% or less (practically no effect))
- P (birds-eye speedwell) weedkilling efficacy grade (birds-eye speedwell): 4 (weed kill ratio 70% or more, less than 90%)
- b (directly sown rice) effect on crop grade (directly sown rice [7]): 4 (weed kill ratio 70% or more, less than 90%)
- G (wild oat) weedkilling efficacy grade (wild oat [8]): 3 (weed kill ratio 40% or more, less than 70%)
- E (green foxtail) weedkilling efficacy grade (green foxtail [9]): 5 (weed kill ratio 90% or more, (practically complete withering))
- I (Italian ryegrass) weedkilling efficacy grade (Italian ryegrass [10]): 4 (weed kill ratio 70% or more, less than 90%)
- M (fig-leafed goosefoot) weedkilling efficacy grade (fig-leafed goosefoot [11]): 4 (weed kill ratio 70% or more, less than 90%)
- d (soybean) effect on crop grade (soybean [12]): 3 (weed kill ratio 40% or more, less than 70%)
- N (chickweed) weedkilling efficacy grade (chickweed [13]): 4 (weed kill ratio 70% or more, less than 90%)
- A (barnyard grass) weedkilling efficacy grade (barnyard grass [14]): 5 (weed kill ratio 90% or more, (practically complete withering))
- e (wheat) effect on crop grade (wheat [15]): 1 (weed kill ratio 5% or more, less than 20%)
- H (black-grass) weedkilling efficacy grade (black-grass [16]): 5 (weed kill ratio 90% or more, (practically complete withering))
- c (corn) effect on crop grade (corn [17]): 1 (weed kill ratio 5% or more, less than 20%)
- a (transplanted rice) effect on crop grade (transplanted rice): 2 (weed kill ratio 20% or more, less than 40%)
- f (beet) effect on crop grade (beet [18]): 4 (weed kill ratio 70% or more, less than 90%)
- K (Indian mallow) weedkilling efficacy grade (Indian mallow [19]): 4 (weed kill ratio 70% or more, less than 90%)
- E (green foxtail) weedkilling efficacy grade (green foxtail [20]): 5 (weed kill ratio 90% or more, (practically complete withering))
- L (redroot pigweed) weedkilling efficacy grade (redroot pigweed [21]): 5 (weed kill ratio 90% or more, (practically complete withering))
- D (crabgrass) weedkilling efficacy grade (crabgrass [22]): 5 (weed kill ratio 90% or more, (practically complete withering))
- b (directly sown rice) effect on crop grade (directly sown rice [23]): 3 (weed kill ratio 40% or more, less than 70%)
- d (soybean) effect on crop grade (soybean [24]): 0 (weed kill ratio 5% or less (practically no effect))
- C (oval-leafed pondweed) weedkilling efficacy grade (oval-leafed pondweed [25]): 5 (weed kill ratio 90% or more, (practically complete withering))
- H (black-grass) weedkilling efficacy grade (black-grass [26]): 4 (weed kill ratio 70% or more, less than 90%)
- B (bulrush) weedkilling efficacy grade (bulrush [27]): 5 (weed kill ratio 90% or more, (practically complete withering))
- M (fig-leafed goosefoot) weedkilling efficacy grade (fig-leafed goosefoot [28]): 3 (weed kill ratio 40% or more, less than 70%)
- B (bulrush) weedkilling efficacy grade (bulrush [29]): 5 (weed kill ratio 90% or more, (practically complete withering))
- G (wild oat) weedkilling efficacy grade (wild oat [30]): 5 (weed kill ratio 90% or more, (practically complete withering))
- A (barnyard grass) weedkilling efficacy grade (barnyard grass [31]): 5 (weed kill ratio 90% or more, (practically complete withering))
- I (Italian ryegrass) weedkilling efficacy grade (Italian ryegrass [32]): 5 (weed kill ratio 90% or more, (practically complete withering))
- N (chickweed) weedkilling efficacy grade (chickweed [33]): 4 (weed kill ratio 70% or more, less than 90%)
- c (corn) effect on crop grade (corn [34]): 4 (weed kill ratio 70% or more, less than 90%)
- O (catchweed) weedkilling efficacy grade (catchweed [35]): 4 (weed kill ratio 70% or more, less than 90%)
- f (beet) effect on crop grade (beet [36]): 4 (weed kill ratio 70% or more, less than 90%)
